The nature of series [1]: Crystal size and size distribution. The class given is physicochemical. How it is done:
(§1) The 1,2-propanediol and DMSO solvates of etoricoxib obtained in the present disclosure are rod-like and bulk crystals, respectively, as shown in FIG. 10 and FIG. 11. The etoricoxib crystal form V in the prior art has a volume-average size of 16 μm and a repose angle of 44°; and the etoricoxib hemihydrate has a volume-average size of 19 μm and a repose angle of 48°. […] Therefore, the 1,2-propanediol and DMSO solvates of etoricoxib obtained in the present disclosure are perfect crystals with smooth surfaces, which are not easy to agglomerate and have prominent flowability.

Series [2] can be described thus: Solubility in aqueous solution. The class given is physicochemical. As to conditions: 25° C. aqueous solution. An excerpt:
Therefore, the 1,2-propanediol and DMSO solvates of etoricoxib obtained in the present disclosure both effectively improve the solubility of etoricoxib in an aqueous solution.

A short description of series [3]: Thermal and moisture stability on storage at room/ambient temperature. It counts as physicochemical. As to conditions: for moisture stability (in words): ambient temperature, transformation into a hydrate; for thermal stability (in words): stored at room temperature. How it is done:
The 1,2-propanediol and DMSO solvates of etoricoxib obtained in the present disclosure have a relatively high desolvation temperature. The 1,2-propanediol and the DMSO have boiling points of […] and 189° C., respectively. […] Moreover, the host-guest intermolecular interaction energies in the crystal structure of etoricoxib 1,2-propanediol and DMSO solvates are −37.22 kJ/mol and −43.37 kJ/mol respectively, which are much higher than that (−30.53 kJ/mol) in hemihydrate crystal structure. It is difficult for water molecules to enter a unit cell of the 1,2-propanediol and DMSO solvates to replace the 1,2-propanediol and DMSO molecules at an ambient temperature. […] As a result, the 1,2-propanediol and DMSO solvates of etoricoxib obtained in the present disclosure both have prominent thermal stability and moisture stability.

The nature of series [4]: Onset temperature of desolvation in TG test (thermogravimetric analysis). It counts as physicochemical. As to conditions: TGA, heating rate 10° C./min, 25° C. to 250° C., nitrogen.
For series [5] the following is noted: prior-art hydrates, cited from earlier work.
Series [6] can be described thus: Repose angle (particle flowability). The class given is physicochemical. How it is done: as §1
The mark [7] stands for this setting: listed as 1,2-propanediol solvate of etoricoxib.
[8] abbreviates: listed as etoricoxib hemihydrate.
Setting [9] is: listed as DMSO solvate of etoricoxib.

Each structure is given as a SMILES string. Values after ≈ are worked out from the molar mass of the structure shown. Read-outs that look alike come from different tables or passages of the source.

For the compound `Cc1ccc(-c2ncc(Cl)cc2-c2ccc(S(C)(=O)=O)cc2)cn1` [1,2-propanediol solvate], the primary crystal size in series [1] is 100 μm. Besides, the “variation coefficient of size distribution” value (“variation coefficient” below) in series [1] (setting [7]) turned out to be 23.6%. In addition, the “solubility in aqueous solution” value in series [2] (setting [7]) amounted to 527 µg/mL. Besides, in series [3], the “moisture stability (in words)” value is listed as “prominent moisture stability” and the “thermal stability (in words)” value is on record as “excellent thermal stability”. Besides, the “Onset temperature of desolvation in TG test” value (“Onset temperature … in TG test” for short) in series [4] was found to be 94 ± 1 °C. For the same compound, the “Onset temperature … in TG test” value in series [4] (setting [7]) amounted to 94 °C.
With `Cc1ccc(-c2ncc(Cl)cc2-c2ccc(S(C)(=O)=O)cc2)cn1` [Hemihydrate, 5-chloro-6′-methyl-3-[4-(methylsulfonyl)phenyl]-2,3′-bipyridine], in series [1], the “variation coefficient” value worked out at 53.6%. Also, the volume-average size in series [1] (setting [8]) is reported as 19 μm. For the same compound, the “onset temperature of dehydration” value in series [5] (listed as hemihydrate) was “lower than 56 °C”. The repose angle in series [6] (setting [8]) turned out to be 48 °.
As for `Cc1ccc(-c2ncc(Cl)cc2-c2ccc(S(C)(=O)=O)cc2)cn1` [Sesquihydrate, 5-chloro-6′-methyl-3-[4-(methylsulfonyl)phenyl]-2,3′-bipyridine], the “onset temperature of dehydration” value in series [5] (listed as sesquihydrate) is “lower than 23 °C”.
Regarding `Cc1ccc(-c2ncc(Cl)cc2-c2ccc(S(C)(=O)=O)cc2)cn1` [Methanol solvate], the “Onset temperature … in TG test” value in series [4] was found to be 27 ± 1 °C; in series [4] (listed as methanol solvate of etoricoxib), 27 °C.
`Cc1ccc(-c2ncc(Cl)cc2-c2ccc(S(C)(=O)=O)cc2)cn1` [EG solvate]: the “Onset temperature … in TG test” value amounted to 96 ± 1 °C in series [4] and 96 °C in series [4] (listed as EG solvate of etoricoxib).
Regarding `Cc1ccc(-c2ncc(Cl)cc2-c2ccc(S(C)(=O)=O)cc2)cn1` [DMSO solvate], the volume-average size in series [1] was found to be 120 μm. The “variation coefficient” value in series [1] (setting [9]) is 19.7%. Besides, in series [2] (setting [9]), the “solubility in aqueous solution” value was determined as 1465 µg/mL. Moreover, the “moisture stability (in words)” value in series [3] was “prominent moisture stability”. The “thermal stability (in words)” value in series [3] was “excellent thermal stability”. In addition, the “Onset temperature … in TG test” value in series [4] amounted to 66 ± 1 °C; in series [4] (setting [9]), 66 °C.
Consider `Cc1ccc(-c2ncc(Cl)cc2-c2ccc(S(C)(=O)=O)cc2)cn1` [etoricoxib crystal form V, 5-chloro-6′-methyl-3-[4-(methylsulfonyl)phenyl]-2,3′-bipyridine, reference compound], for which, in series [1], the “variation coefficient” value is listed as 57.2% and the volume-average size is 16 μm. In series [2], the “solubility in aqueous solution” value came to 307.9 µg/mL (≈ 858 µM). Moreover, in series [6], the repose angle is 44 °.
As to `Cc1ccc(-c2ncc(Cl)cc2-c2ccc(S(C)(=O)=O)cc2)cn1` [Formamide solvate], in series [4] (listed as formamide solvate of etoricoxib), the “Onset temperature … in TG test” value stood at 90 °C.
As to `Cc1ccc(-c2ncc(Cl)cc2-c2ccc(S(C)(=O)=O)cc2)cn1` [NMP solvate], the “Onset temperature … in TG test” value in series [4] turned out to be 79 ± 1 °C; in series [4] (listed as NMP solvate of etoricoxib), 79 °C.

(Values after patent publication US11655231B2, “Etoricoxib solvates and preparation method thereof” (Tianjin University, priority 2020, dated 2023).)
